Data from PubChem BioAssay (NCI).
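Growth conditions: 96-well plates. Treatment: test compound, 48 hours, 5 concentrations. Analysis: linear interpolation between bracketing concentrations; unreached endpoints set to highest concentration. The concentration for 50% growth inhibition is given as GI50. TGI denotes the concentration required for complete inhibition of growth.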

Legend:
Assay in all cases: NCI anticancer screen, dose series, 48 h
HCT-15 colon = tested on: HCT-15 colon
M14 melanoma = tested on: M14 melanoma
UACC-257 melanoma = tested on: UACC-257 melanoma
A549 NSCLC = tested on: A549 NSCLC
HCC-2998 colon = tested on: HCC-2998 colon
BT-549 breast = tested on: BT-549 breast
SNB-75 CNS = tested on: SNB-75 CNS
SK-OV-3 ovarian = tested on: SK-OV-3 ovarian

| Structure (SMILES) | GI50 (HCT-15 colon) | TGI (HCT-15 colon) | GI50 (M14 melanoma) | TGI (M14 melanoma) | GI50 (UACC-257 melanoma) | TGI (UACC-257 melanoma) | GI50 (A549 NSCLC) | TGI (A549 NSCLC) | GI50 (HCC-2998 colon) | TGI (HCC-2998 colon) | GI50 (BT-549 breast) | TGI (BT-549 breast) | GI50 (SNB-75 CNS) | TGI (SNB-75 CNS) | GI50 (SK-OV-3 ovarian) | TGI (SK-OV-3 ovarian) |
| --- | --- | --- | --- | --- | --- | --- | --- | --- | --- | --- | --- | --- | --- | --- | --- | --- |
| CSc1ccc(C(=O)/C=C/c2ccc(Cl)cc2Cl)cc1 | 29.8 µM | 97.7 µM | 21.6 µM | 59.6 µM | 24 µM | 91.4 µM | 17.7 µM | 40.5 µM | 17.2 µM | 35.8 µM | 15.7 µM | 33.1 µM | – | – | – | – |
| CC(C)(C)[Si](C)(C)OC1[C@@H](COC(=O)NC(=O)CCl)O[C@@H](n2cnc3c(N)ncnc32)[C@H]1O[Si](C)(C)C(C)(C)C (stereo not given in full) | 1 µM | 2.21 µM | 1.39 µM | 4.23 µM | 6.98 µM | 13.8 µM | 4.94 µM | 11.9 µM | 5.44 µM | 12.6 µM | 0.922 µM | 1.85 µM | 3.64 µM | 10.8 µM | 2.92 µM | 5.95 µM |
| CC12O[C@H](C[C@@H](OC(=O)CCC(=O)O)[C@H]1O)n1c3ccccc3c3c4c(c5c6ccccc6n2c5c31)C(=O)NC4=O | 0.767 µM | 16.4 µM | 0.239 µM | 6.54 µM | 1.52 µM | 10.6 µM | 1.55 µM | > 50 µM | 5.64 µM | 15.1 µM | 1.02 µM | 7.68 µM | 1.07 µM | 7.41 µM | 0.323 µM | 3.44 µM |
| CCOC(=O)/C=C1/SC(=Nc2ccc(C#N)cc2)N(Cc2ccco2)C1=O | 2.02 µM | 5.13 µM | 2.22 µM | 6.55 µM | 5.34 µM | 18.4 µM | 10.4 µM | 26.1 µM | 3.67 µM | 15.8 µM | 10.8 µM | 52.6 µM | 10.3 µM | 55.4 µM | 14.1 µM | 29.9 µM |
